Test results: patent US20190374468A1, “Liposomal Formulations for Allosteric AKT Inhibitors” (Merck Sharp & Dohme Corp., priority 2013, published 2019)

Experiments:
[1] = Visual evaluation of Compound B in the presence of sulfate salts; format: physicochemical; conditions: 1 mg/mL in pH 3.0 citrate buffer with 0.1-1.0 M (NH4)2SO4, 20° C.
Procedure: The behavior of Compound B in the presence of sulfate salts was further evaluated visually. Vials containing 1 mg/mL Compound B in pH 3.0 citrate buffer with 0.1 M, 0.25 M, 0.5 M, and 1.0 M, respectively, of (NH4)2SO4 were visually observed at 20° C. […] Solutions became increasingly more viscous with a white/opaque appearance with increasing amounts of ammonium sulfate.

[2] = Aqueous solubility of Compound B; format: physicochemical

time to flocculation after addition of ammonium sulfate [1]: < 30 min | solubility ([2]; 0.1 M carbonate buffer, aqueous buffer, pH 8.6, 0.1M Carbonate): 0.7 µg/mL | solubility ([2]; 0.1 M citrate buffer, aqueous buffer, pH 2.8, 0.1M Citrate): 10600 µg/mL | solubility ([2]; 0.1 M citrate buffer, aqueous buffer, pH 3.9, 0.1M Citrate): 170 µg/mL | solubility ([2]; 0.1 M citrate buffer, aqueous buffer, pH 5.0, 0.1M Citrate): 59 µg/mL | solubility ([2]; 0.1 M phosphate buffer, aqueous buffer, pH 5.6, 0.1M Phosphate): 140 µg/mL | solubility ([2]; 0.1 M phosphate buffer, aqueous buffer, pH 6.9, 0.1M Phosphate): 36 µg/mL | solubility ([2]; simulated gastric fluid, pH 2.1, 0.01N HCl): 4230 µg/mL | solubility ([2]; un-buffered aqueous medium, water, pH 4.1, Un-buffered): 7460 µg/mL
SMILES: Cl.NC1(c2ccc(-c3nc4ccn5c(=O)[nH]nc5c4cc3-c3ccccc3)cc2)CCC1 [Compound B, 8-[4-(1-aminocyclobutyl)phenyl]-9-phenyl[1,2,4]triazolo[3,4-f]-1,6-naphthyridin-3-ol]
